Assay results as given in patent publication US10844044B2 (Vanderbilt University, priority 2018, dated 2020).
Read-outs that look alike come from different tables or passages of the source.

Columns and labels:
[1] = test system: MV4:11 human cancer cell lines; assay: Anti-proliferative activity, CellTiter-Glo viability assay, 7 day protocol; type: cell-based; conditions: Homo sapiens, MV4-11, 168 h, MV4:11 cells, 7 day incubation, read-out: GI50 on cellular proliferation of MV4:11 human cancer cell lines
Procedure, shortened: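 Luminescent CellTiter-Glo readout after 7-day compound exposure of MV4:11 cells plated at 3600 cells/ml (final DMSO 0.1%). GI50 derived from three biological × three technical replicates, reported as mean ± S.E.M.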

WDR5 = WDR5 (Homo sapiens (Human), UniProt P61964); assay: TR-FRET binding assay (displacement of 10mer-Thr-FAM probe from WDR5); conditions: read-out: Ki for Inhibition of WDR5 by TR-FRET assay
[2] = TR-FRET, 10mer-Thr-FAM probe, WDR5-His tag 2 nM, pH 7.0

| Compound | GI50 [1] | Ki (WDR5; [2]) | Ki (WDR5) |
| --- | --- | --- | --- |
| Cc1ncccc1-c1cc(Cn2ccn(C)c2=N)cc(C(=O)NCc2ncc(Cl)cn2)c1 [Example 44, N-((5-Chloropyrimidin-2-yl)methyl)-3-((2-imino-3-methyl-2,3-dihydro-1H-imidazol-1-yl)methyl)-5-(2-methylpyridin-3-yl)benzamide] | 22000 nM | 9.2 nM | – |
| Cc1cc(CNC(=O)c2cc(Cn3ccn(C)c3=N)cc(-c3cccc4[nH]nc(C)c34)c2)ccc1Cl [Example 46, N-(4-chloro-3-methylbenzyl)-3-((2-imino-3-methyl-2,3-dihydro-1H-imidazol-1-yl)methyl)-5-(3-methyl-1H-indazol-4-yl)benzamide] | 5900 nM | 1.3 nM | – |
| Cc1ccnc(C(NC(=O)c2cc(Cn3ccn(C)c3=N)cc(-c3c(C)ccc4[nH]ncc34)c2)C2CC2)c1 (centres unmarked) [Example 47, N-(cyclopropyl(4-methylpyridin-2-yl)methyl)-3-((2-imino-3-methyl-2,3-dihydro-1H-imidazol-1-yl)methyl)-5-(5-methyl-1H-indazol-4-yl)benzamide] | 6700 nM | 0.88 nM | – |
| COc1cc(CNC(=O)c2cc(Cn3ccn(C)c3=N)cc(-c3c(C)cc(F)cc3F)c2)cc(OC)c1 [Example 52, N-(3,5-dimethoxybenzyl)-2′,4′-difluoro-5-((2-imino-3-methyl-2,3-dihydro-1H-imidazol-1-yl)methyl)-6′-methyl-[1,1′-biphenyl]-3-carboxamide] | 510 nM | 0.19 nM | – |
| Cc1cc(CNC(=O)c2cc(Cn3ccn(C)c3=N)cc(-c3c(C)cc(F)cc3F)c2)ccc1Cl [Example 53, N-(4-Chloro-3-methylbenzyl)-2′,4′-difluoro-5-((2-imino-3-methyl-2,3-dihydro-1H-imidazol-1-yl)methyl)-6′-methyl-[1,1′-biphenyl]-3-carboxamide] | 580 nM | 0.56 nM | – |
| Cc1cc(C(C)NC(=O)c2cc(Cn3ccn(C)c3=N)cc(-c3ccc(F)cc3C)n2)ncc1Cl (centres unmarked) [Example 55, N-(1-(5-Chloro-4-methylpyridin-2-yl)ethyl)-6-(4-fluoro-2-methylphenyl)-4-((2-imino-3-methyl-2,3-dihydro-1H-imidazol-1-yl)methyl)picolinamide] | 1800 nM | 1.8 nM | – |
| Cc1cc(CNC(=O)c2cc(Cn3ccn(C)c3=N)cc(-c3ccc(F)cc3C)n2)ccc1Cl [Example 56, N-(4-Chloro-3-methylbenzyl)-6-(4-fluoro-2-methylphenyl)-4-((2-imino-3-methyl-2,3-dihydro-1H-imidazol-1-yl)methyl)picolinamide] | 450 nM | 1.2 nM | – |
| Cc1cc([C@@H](NC(=O)c2cc(Cn3ccn(C)c3=N)cc(-c3cccnc3C(F)(F)F)c2)C2CC2)ccc1F [Example 60, (S)—N-(cyclopropyl(4-fluoro-3-methylphenyl)methyl)-3-((2-imino-3-methyl-2,3-dihydro-1H-imidazol-1-yl)methyl)-5-(2-(trifluoromethyl)pyridin-3-yl)benzamide] | < 100 nM | < 0.1 nM | – |
| COc1cc(OC)cc(C(NC(=O)c2cc(Cn3ccn(C)c3=N)cc(-c3ncccc3C(F)(F)F)c2)C2CC2)c1 (centres unmarked) [Example 61, N-(Cyclopropyl(3,5-dimethoxyphenyl)methyl)-3-((2-imino-3-methyl-2,3-dihydro-1H-imidazol-1-yl)methyl)-5-(3-(trifluoromethyl)pyridin-2-yl)benzamide] | 4200 nM | 2.8 nM | – |
| COc1cc(CNC(=O)c2cc(Cn3ccn(C)c3=N)cc(-c3ccc(F)cc3OC(F)F)c2)cc(OC)c1 [Example 62, 2′-(Difluoromethoxy)-N-(3,5-dimethoxybenzyl)-4′-fluoro-5-((2-imino-3-methyl-2,3-dihydro-1H-imidazol-1-yl)methyl)-[1,1′-biphenyl]-3-carboxamide] | 800 nM | 0.29 nM | – |
| COc1cc(OC)cc(C(NC(=O)c2cc(Cn3ccn(C)c3=N)cc(-c3ccc(F)cc3OC(F)F)c2)C2CC2)c1 (centres unmarked) [Example 63, N-(Cyclopropyl(3,5-dimethoxyphenyl)methyl)-2′-(difluoromethoxy)-4′-fluoro-5-((2-imino-3-methyl-2,3-dihydro-1H-imidazol-1-yl)methyl)-[1,1′-biphenyl]-3-carboxamide] | 460 nM | 0.1 nM | – |
| Cc1cc([C@@H](NC(=O)c2cc(Cn3ccn(C)c3=N)cc(-c3ncccc3C(F)(F)F)c2)C2CC2)ccc1F [Example 64, (S)—N-(Cyclopropyl(4-fluoro-3-methylphenyl)methyl)-3-((2-imino-3-methyl-2,3-dihydro-1H-imidazol-1-yl)methyl)-5-(3-(trifluoromethyl)pyridin-2-yl)benzamide] | 930 nM | 0.59 nM | – |
| COc1cc(CNC(=O)c2cc(Cn3ccn(C)c3=N)cc(-c3c(C)cc(F)cc3C)c2)cc(OC)c1 [Example 65, N-(3,5-dimethoxybenzyl)-4′-fluoro-5-((2-imino-3-methyl-2,3-dihydro-1H-imidazol-1-yl)methyl)-2′,6′-dimethyl-[1,1′-biphenyl]-3-carboxamide] | 300 nM | 0.63 nM | – |
| Cc1cc([C@@H](NC(=O)c2cc(Cn3ccn(C)c3=N)cc(-c3ncc(F)cc3C)c2)C2CC2)ccc1F [Example 66, (S)—N-(Cyclopropyl(4-fluoro-3-methylphenyl)methyl)-3-(5-fluoro-3-methylpyridin-2-yl)-5-((2-imino-3-methyl-2,3-dihydro-1H-imidazol-1-yl)methyl)benzamide] | 510 nM | 0.12 nM | – |
| COc1cc(CNC(=O)c2cc(Cn3ccn(C)c3=N)cc(-c3ncc(F)cc3C)c2)cc(OC)c1 [Example 67, N-(3,5-Dimethoxybenzyl)-3-(5-fluoro-3-methylpyridin-2-yl)-5-((2-imino-3-methyl-2,3-dihydro-1H-imidazol-1-yl)methyl)benzamide] | 3800 nM | – | 3.9 nM |
| COc1cc(OC)cc(C(NC(=O)c2cc(Cn3ccn(C)c3=N)cc(-c3ncc(F)cc3C)c2)C2CC2)c1 (centres unmarked) [Example 68, N-(Cyclopropyl(3,5-dimethoxyphenyl)methyl)-3-(5-fluoro-3-methylpyridin-2-yl)-5-((2-imino-3-methyl-2,3-dihydro-1H-imidazol-1-yl)methyl)benzamide] | 2700 nM | – | 0.35 nM |
| Cc1ccnc(C(NC(=O)c2cc(Cn3ccn(C)c3=N)cc(-c3ncc(F)cc3C)c2)C2CC2)c1 (centres unmarked) [Example 69] | 5100 nM | 2.4 nM | – |
| Cc1ccnc(C(NC(=O)c2cc(Cn3ccn(C)c3=N)cc(-c3ccc(F)cc3OC(F)F)c2)C2CC2)c1 (centres unmarked) [Example 71, N-(Cyclopropyl(4-methylpyridin-2-yl)methyl)-2′-(difluoromethoxy)-4′-fluoro-5-((2-imino-3-methyl-2,3-dihydro-1H-imidazol-1-yl)methyl)-[1,1′-biphenyl]-3-carboxamide] | 1900 nM | 0.33 nM | – |
| Cn1ccn(Cc2cc(C(=O)NC(CC(=O)O)c3ccc(Cl)c(Cl)c3)cc(-c3ccc(F)cc3C(F)(F)F)c2)c1=N (centres unmarked) [Example 84, 3-(3,4-Dichlorophenyl)-3-(4′-fluoro-5-((2-imino-3-methyl-2,3-dihydro-1H-imidazol-1-yl)methyl)-2′-(trifluoromethyl)-[1,1′-biphenyl]-3-carboxamido)propanoic acid] | 2100 nM | 0.12 nM | – |
